{
  "source": "patent EP0231622B1",
  "about": "“Inhibition of the 5-lipoxygenase pathway” (priority 1985, dated 1987)",
  "key": {"[1]": {"tested_on": "Production of PGE₂ by Mouse Peritoneal Exudate Cells", "assay": "PGE2 production by peritoneal macrophages", "assay_type": "cell-based", "description": "For in vitro experiments, compounds were dissolved at appropriate concentrations in ethanol or DMSO (dimethylsulfoxide) (final concentration <1.0%) and then diluted to final concentrations using the buffers indicated in the text.\nMice were injected intraperitoneally with 350 »g Corynebacterium parvum and the peritoneal exudate cell population was harvested 12-14 days later by peritoneal lavage with cold phosphate-buffered saline, and resuspended in Eagles minimal essential medium supplemented with 5% fetal calf serum. […] Test compounds were added (100 ul) to bring the final volume to 1.0 ml. Lipopolysaccharide (5 »g/ml) was then added to stimulate PGE₂ synthesis. After incubation at 37°C for 2 hours, cell-free supernatants were harvested, placed in polypropylene tubes and frozen at -20°C until assayed for their PGE₂ content using a commercial radioimmunoassay kit. IC₅₀ is the concentration that inhibits 50% of control activity."}, "5-Lipoxygenase": {"target": "T1, 5-Lipoxygenase (Rattus norvegicus, UniProt P12527)", "T1 construct": "The activities of these enzymes in extracts of RBL-1 cells were assayed; host or cells: RBL-1 cells, disrupted by nitrogen cavitation; 10,000 x g or 100,000 x g supernatant", "T1 sequence (P12527 1-673)": "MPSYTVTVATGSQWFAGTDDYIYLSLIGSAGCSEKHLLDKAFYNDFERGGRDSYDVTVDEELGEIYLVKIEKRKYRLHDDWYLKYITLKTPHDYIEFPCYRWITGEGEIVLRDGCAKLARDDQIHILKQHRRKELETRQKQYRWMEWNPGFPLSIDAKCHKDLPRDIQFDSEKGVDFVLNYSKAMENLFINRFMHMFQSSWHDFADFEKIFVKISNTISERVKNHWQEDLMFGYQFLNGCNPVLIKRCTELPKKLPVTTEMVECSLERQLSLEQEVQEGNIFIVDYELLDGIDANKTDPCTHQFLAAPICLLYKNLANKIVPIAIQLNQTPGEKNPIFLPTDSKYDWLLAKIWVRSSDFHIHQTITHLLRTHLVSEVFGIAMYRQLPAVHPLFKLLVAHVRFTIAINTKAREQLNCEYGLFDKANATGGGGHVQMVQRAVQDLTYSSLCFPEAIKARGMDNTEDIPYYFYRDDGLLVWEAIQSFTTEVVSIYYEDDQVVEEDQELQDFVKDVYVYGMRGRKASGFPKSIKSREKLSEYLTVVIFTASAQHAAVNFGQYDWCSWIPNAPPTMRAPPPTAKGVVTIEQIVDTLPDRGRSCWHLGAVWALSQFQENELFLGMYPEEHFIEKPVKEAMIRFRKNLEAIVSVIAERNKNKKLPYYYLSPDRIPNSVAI", "assay": "5-Lipoxygenase activity (5-HETE) in 10,000 x g supernatant of RBL-1 cells", "assay_type": "biochemical", "conditions": "text b252; RBL-1 cell extracts; read-out: IC₅₀ 5-HETE synthesis", "quoted_text": "Harvested cells were washed with 50 mM sodium phosphate buffer, pH 7.0, containing 1 mM EDTA and 0.1% gelatin, resuspended in fresh buffer (5 x 10⁷ cells/ml) and disrupted by nitrogen cavitation using the Parr bomb at 750 psi for 10 min. The broken cell extract was then centrifuged at 10,000 x g for 20 minutes and the supernatant centrifuged at 100,000 x g for 60 minutes. Aliquots (0.25 mls) of the supernatant were preincubated with or without drugs for 10 min, after which 10 ul CaCl₂ (50 mM) was added and the reaction was initiated with 2.5 ul of 2.5 mM arachidonic acid-1-¹⁴C (final concentration was 25 mM; specific activity 20,000 dpm/nmole). After incubation for 3 min at 37°C, the reaction was terminated by addition of 2 volumes (0.5 ml) ice cold acetone and the sample was allowed to deproteinize on ice for 10 min prior to centrifugation at 1,000 x g for 10 min. The deproteinized supernatant was adjusted to pH 3.5 with 2N formic acid and extracted with 2 volumes of ice cold ethyl acetate. […] Arachidonic acid, 5-HETE, di-HETE and PGD₂ were quantified with a Berthold LB 2832 autoscanner."}, "[2]": {"tested_on": "Arachidonic Acid-Induced Inflammation of the Mouse Ear", "assay": "Arachidonic acid-induced mouse ear inflammation", "assay_type": "in vivo, Balb/c mice", "excerpt": "(§1) In the following Examples where mice were used, they were male Balb/c mice (20-28 g), and where rats were used, they were male Lewis rats (180-210 g). All mice and rats were obtained from Charles River Breeding Laboratories, Kingston, N.Y. Within a single experiment, mice and rats were sex and age matched.\n(§2) The compounds of Formula (IA) were used either as the free base or in the appropriate salt form. Levamisole was used as the hydrochloride salt. The compounds were homogenized in 0.5% tragacanth. Compounds were administered by gavage at the indicated dose in a final volume of 10 ml/kg. Nordihydroguaiaretic acid (NDGA) was solubilized in dimethylacetamide and diluted with olive oil for subcutaneous administration.\nArachidonic acid in acetone (2 mg/20 ul) was applied to the inner surface of the left ear. The thickness of both ears was then measured with a dial micrometer one hour after treatment, and the data were expressed as the change in thickness (10⁻³ cm) between treated and untreated ears.\nTest compounds were given orally in 0.5% tragacanth at the times indicated in the text prior to the topical application of arachidonic acid.\nParenteral administration of compound was accomplished by subcutaneous injection of solution as indicated."}, "[3]": {"tested_on": "Arachidonic Acid-Induced Rat Paw Edema", "assay": "Arachidonic acid-induced rat paw swelling", "assay_type": "in vivo, Lewis rats", "conditions": "100 mg/kg, read at 2 hours", "excerpt": "as §1, §2"}, "[4]": {"tested_on": "Polymorphonuclear Leukocytes", "assay": "Mouse Carrageenan Peritonitis (PMN infiltration)", "assay_type": "in vivo, Balb/c mice", "conditions": "for % Change / PMN x 10⁻⁵/ml (mean ± S.D.): Table 1, p.o.", "procedure,_shortened": "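Male Balb/c mice dosed orally by gavage (compounds in 0.5% tragacanth) 1 h before i.p. 1.0% carrageenan; NDGA given s.c. Peritoneal lavage with Ca/Mg-free PBS 2 h post-injection; total cells by Coulter counter, differentials from Giemsa-stained slides.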"}, "[5]": {"tested_on": "Experimental Allergic Encephalomyelitis", "assay": "Experimental allergic encephalomyelitis, hindleg paralysis", "assay_type": "in vivo, Female Lewis rats", "conditions": "60 Mg/kg/day, p.o. days 0-4, 7-11, 14-18", "description": "EAE is induced in Female (Charles River) Lewis rats by a single intradermal injection of 0.1 ml of an encephalitogenic emulsion consisting of equial parts of a 50% w/v homogenate of guinea pig spinal cord and mid-brain in 0.5% aqueous phenol and Freund's complete adjuvant (4 mg/ml killed, dried M. butyricum) into a hindpaw (left) footpad. […] Any animal which becomes paralyzed during the course of the experiment is considered to have developed EAE whether or not the paralysis is permanent. Test compounds are administered daily beginning on the day of injection, for 19 days, exclusive of days 5, 6 12 and 13. Drug activity is determined by comparing the indicidence of EAE (paralysis) of the treated group with a control (vehicle) group. The level of significant difference between the treated groups and control groups is determined by a Chi-square test using a 2x2 contingency table. Body weight changes from day 0 are also statistically compared to the control group using a Student \"t\" test."}},
  "note": "pIC50: −log10 of the molar value. Like-named read-outs stand apart in the source and are kept apart here. Marks after values point to notes of the source that are not given here.",
  "data": [
    {"smiles": "Fc1ccc(-c2nc3n(c2-c2ccncc2)CCS3)cc1", "note": "[Compound 1, 5-(4-pyridyl)-6-(4-fluorophenyl)-2,3-dihydroimidazo[2,1-b]thiazole]", "values": [
      {"measurement": "pIC50", "setting": "[1]; Macrophage, read-out: IC₅₀ production of PGE₂ by inflammatory macrophages", "value": 6.15},
      {"measurement": "pIC50", "setting": "[1]; Peritoneal macrophage, Table 10, LPS-stimulated, C. parvum-elicited peritoneal exudate cells, read-out: IC₅₀ (»M) production of PGE₂", "value": 6.15},
      {"measurement": "pIC50", "setting": "5-Lipoxygenase", "value": 4.12},
      {"measurement": "ED50", "setting": "[2]; Mus musculus, po, 1 hour after 2 mg of arachidonic acid to the ear, read-out: ED₅₀ (inhibition of the edematous response of the ear)", "value": 19.5, "unit": "mg/kg"},
      {"measurement": "% Change", "setting": "[2]; Table 7, 50 mg/kg, p.o.", "value": "-67^b %"},
      {"measurement": "Increase in Ear Thickness at 1 Hour (x 10⁻³ cm)", "setting": "[2]; Table 7, 50 mg/kg, p.o., 15 minutes before arachidonic acid", "value": "10.0 ± 1.5", "unit": "x 10⁻³ cm"},
      {"measurement": "Change in Paw Volume", "setting": "[3]; one hour before arachidonic acid", "value": "0.06 ± 0.05", "unit": "mL"},
      {"measurement": "(% Inhibition) of change in paw volume", "setting": "[3]", "value": 78, "unit": "%"},
      {"measurement": "ED50", "setting": "[4]; Mus musculus, Leukocyte, po, intraperitoneal carrageenan in mice, read-out: ED₅₀ (inhibition of PMN infiltration)", "value": 43.9, "unit": "mg/kg"},
      {"measurement": "% Change", "setting": "[4]; 25 mg/kg", "value": "-27^e %"},
      {"measurement": "% Change", "setting": "[4]; 50 mg/kg", "value": "-56^c %"},
      {"measurement": "PMN x 10⁻⁵/ml (mean ± S.D.)", "setting": "[4]; 50 mg/kg", "value": "4.84 ± 3.01", "unit": "x 10⁻⁵/ml"},
      {"measurement": "PMN x 10⁻⁵/ml (mean ± S.D.)", "setting": "[4]; 100 mg/kg, 1 h before i.p. carrageenan, read 2 h later", "value": "2.48 ± 0.98", "unit": "x 10⁻⁵/ml"},
      {"measurement": "% Change", "setting": "[4]; 100 mg/kg, PMN vs vehicle", "value": "-77^b %"},
      {"measurement": "HINDLEG PARALYSIS - CUMULATIVE INCIDENCE DAY 9 TO 13", "setting": "[5]", "value": "10/12"},
      {"measurement": "HINDLEG PARALYSIS - CUMULATIVE INCIDENCE DAY 14 TO 18", "setting": "[5]", "value": "0/11**"}
    ]}
  ]
}
